Experimental data reported in patent US20250327794A1, “FLUOROMETRIC METHODS FOR DETECTION OF ALLERGIC SENSITIVITY TO ENVIRONMENTAL, FOODSTUFF, AND MEDICAMENT STIMULANTS” (CELL SCIENCE SYSTEMS CORPORATION, priority 2022, published 2025).

Tested on: eosinophils
Assay: Eosinophil activation: RH 123 signal in CD193(+)/CD16(-) gated cells
Type: cell-based, human
From the text: Activation of eosinophils from human blood samples following exposure to exogenous stimulants was investigated using flow cytometry analysis of RH 123 fluorescence, as well as cell surface markers CD16 and CD193, and side scattering profiles. CD193 (CCR3; Chemokine C—C motif receptor 3) is a surface marker expressed in eosinophils and basophils. FIGS. 23A-23C show density plots of CD193 fluorescence signal on channel 3 (FL3-A) for DHR 123 only (FIG. 23A), DHR 123+PMA stimulant (FIG. 23B), and DHR 123+DM stimulant (FIG. 23C) following exposure to stimulant for 1.5 hours. FIGS. 23D-23F show corresponding gated RH 123 results (MFI=32944, MFI=70320, and MFI=28522, respectively). FIGS. 24A-24C show density plots of CD193 fluorescent signals at channel 3 (FL3-A) for DHR 123 only (FIG. 24A), DHR 123+DM stimulant (FIG. 24B), and DHR 123+RWP stimulant (FIG. 24C) following exposure to stimulant for 2.5 hours. FIGS. 24D-24F show corresponding gated RH 123 results (FIG. 24D, DHR 123 only: MFI=10156; FIG. 24E, DHR 123+DM stimulant: MFI=19911, and […], DHR 123+RWP stimulant: MFI=17210).
Eosinophil population was selected using CD193(+) and CD16(−) expression profiles (shown in FIGS. 23A-23C and […] as encircled). Eosinophil population was reduced in PMA stimulant, DM stimulant and RWP stimulant exposed groups. In addition, DHR 123 signals in gated eosinophils was higher than DHR 123 only control group after 2.5-hour incubation. Thus, it was concluded that eosinophils are activated by dust mite and ragweed pollen stimulants according to this method.

CCCCCCCCCCCCCC(=O)O[C@@H]1[C@@H](C)[C@@]2(O)[C@@H](C=C(CO)C[C@]3(O)C(=O)C(C)=C[C@@H]23)[C@@H]2C(C)(C)[C@]12OC(C)=O [PMA, Phorbol-12-Myristate-13-Acetate]
CD193 signal over incubation time (1-3 hr incubation, DHR 123 and PMA): decreased | gated RH 123 signal MFI, CD193 gated (1.5 hours exposure, DHR 123 only control MFI=32944): 70320 | eosinophil population (in words) (CD193(+) and CD16(−) population in stimulant exposed groups): reduced
